From patent US5093325A, “Combination preparation having antithrombotic action” (priority 1989, dated 1992)

Assays:
[1] = tested on: thrombus formation in carotid arteries; experiment: Thrombus formation in carotid arteries previously traumatized by pressure + cold (thrombus hemoglobin content); type: in vivo, guinea pig
Protocol: A 2-cm-long piece of the external left carotid artery on an anesthetized guinea pig is carefully exposed and drawn over a small metal plate. Then the vascular wall is weighted down over a length of 1 cm for 3 minutes with a steel stamp weighing 200 g, cooled to -15° C. In this way, a massive local vascular trauma is caused on a large artery and a red thrombus develops on the traumatized site. Three hours after the trauma the traumatized segment and an equally long piece of the contralateral artery are removed, asked and put in hemoglobin test reagent. The hemoglobin contents of the two segments are determined 24 hours later. The net hemoglobin content of the red thrombus as the measurement of the thrombus size is calculated from the difference of these hemoglobin contents.

[2] = tested on: collagen-stimulated blood platelets; experiment: Inhibition of collagen-induced thrombocytopenia in anesthetized guinea pigs; type: in vivo, guinea pig; settings: for % Thrombocytopenia Inhibition: average ± SEM
Description: Reversible thrombocytopenias are produced on anesthetized guinea pigs by injection of collagen ([…] i.v.). The cause of these thrombocytopenias is an aggregate formation of the collagen-stimulated blood platelets and the embolization of these platelet aggregates in the lungs, where they then lodge and thus cause the observed drops of the platelet count in the blood (thrombocytopenias).

[3] = tested on: occluding platelet thrombi on mesenteric arterioles; experiment: Thrombogenic ADP concentration for occluding platelet thrombi on previously traumatized mesenteric arterioles; type: in vivo, guinea pig; settings: for Thrombogenic ADP Concentration, Increase: N 5, average
Protocol: A mesenteric loop is placed on an anesthetized guinea pig and is superfused with a moderately heated solution of common salt. Under intravital microscopic control the vascular wall of a mesenteric arteriole (020-50 m) is traumatized by a series of electric pulses. By subsequent local application of increasing concentrations of ADP (adenosine diphosphate) solution a thrombogenic ADP concentration is determined, at which an occluding platelet thrombus forms on the pretraumatized site of the arteriole. This thrombogenic ADP concentration produces vascular-specific and reproducible thrombi in the respective arteriole.

[4] = tested on: human platelets; experiment: Inhibition of collagen-stimulated aggregation of human platelets in platelet-rich plasma (aggregometer); type: cell-based
Protocol: (§1) Human platelet-rich plasma (PRP) is incubated in an aggregometer at 37° C. and mixed with […] of collagen to cause aggregation. […] The course of the aggregation is recorded in the aggregometer. 10 minutes after collagen addition, the samples are centrifuged at 3000 rpm and the supernatant is tested with an enzyme linked immunosorbent assay (ELISA) for its content of plasminogen activator inhibitor-1 (PAI-1) and with a radioimmunoassay (RIA) for the content of platelet-derived growth factor (PDGF).

[5] = tested on: PAI-1 release of human platelets; experiment: Inhibition of PAI-1 release from collagen-stimulated human platelets (ELISA); type: cell-based; settings: Platelet, N = 6, % of control
Protocol: as §1

[6] = tested on: PDGF release of human platelets; experiment: Inhibition of PDGF release from collagen-stimulated human platelets (RIA); type: cell-based; settings: Platelet, N = 6, % of control
Protocol: as §1

## CC(=O)Oc1ccccc1C(=O)O [ASA, acetylsalicylic acid]
[1]; ASA 5 mg/kg i.v.
  effect on thrombus formation in the carotid artery, in words: no significant effect
[1]; ASA 5 mg/kg, N 10, Q 25/Q 75 -0.1/13.8, n.s., control 8.6
  Thrombus Hb content, Median: 3.4 µmol
[2]; ASA 0.5 mg/kg i.v.
  thrombocytopenia inhibition, in words: weakly inhibiting
[2]; ASA 0.5 mg/kg i.v., N 8, p less than 0.05 vs control
  % Thrombocytopenia Inhibition: 17 ± 3%
[3]; ASA 10 mg/kg i.v.
  change of thrombogenic ADP concentration, in words: does not change the thrombogenic ADP concentration
[3]; ASA 10 mg/kg, SEM ±0.13, n.s.
  Thrombogenic ADP Concentration, Increase: 0.06

## CCC#CC[C@H](C)[C@H](O)C#C[C@@H]1[C@H]2C/C(=C/COCC(=O)O)C[C@H]2C[C@H]1O [Cicaprost]
[1]; Cicaprost 0.3 ng/kg/min, N 10, Q 25/Q 75 8.0/25.0, n.s., control 8.6
  Thrombus Hb content, Median: 12.4 µmol
[1]; Cicaprost 1.0 ng/kg/min, N 10, Q 25/Q 75 0.2/5.8, significant vs control 8.6
  Thrombus Hb content, Median: 1.9 µmol
[1]; Cicaprost 3.0 ng/kg/min, N 11, Q 25/Q 75 -0.4/0.7, significant vs control 8.6
  Thrombus Hb content, Median: 0 µmol
[1]; dosage printed C.3 ng/kg/min i.v.
  effect on thrombus formation in the carotid artery, in words: significantly effective
[2]; Cicaprost 1 ng/kg/min i.v., separately
  thrombocytopenia inhibition, in words: ineffective
[2]; Cicaprost 1 ng/kg/min i.v., N 6, n.s.
  % Thrombocytopenia Inhibition: 8 ± 5%
[2]; Cicaprost 3 ng/kg/min, N 6, p less than 0.05 vs control
  % Thrombocytopenia Inhibition: 36 ± 4%
[2]; vs 1 ng/kg/min i.v. in combination with ASA 0.5 mg/kg
  higher dose of Cicaprost alone needed for the effect of the combination: three-fold higher dose
[3]; 100 ng/kg/min i.v. alone vs 10 ng/kg/min in combination
  higher dosage of Cicaprost alone needed for the antithrombotic action of the combination: 10 fold
[3]; Cicaprost 10 ng/kg/min i.v.
  change of thrombogenic ADP concentration, in words: not significantly effective
[3]; Cicaprost 10 ng/kg/min, SEM ±0.39, n.s.
  Thrombogenic ADP Concentration, Increase: 0.36
[3]; Cicaprost 30 ng/kg/min, SEM ±0.20, p less than 0.05 vs control
  Thrombogenic ADP Concentration, Increase: 1.02
[3]; Cicaprost 100 ng/kg/min i.v., N=5
  increase of the thrombogenic ADP concentration: 1.32±0.2 log M
[3]; Cicaprost 100 ng/kg/min, SEM ±0.20, p less than 0.05 vs control
  Thrombogenic ADP Concentration, Increase: 1.32
[4]; Cicaprost 10^-10 or 10^-9 M, separately
  platelet aggregation inhibition, in words: ineffective
[4]; Homo sapiens, Platelet, Cicaprost 10^-7 M, N = 6, % of control
  inhibition at 0.1 µM: 95 ± 3%
[4]; Homo sapiens, Platelet, Cicaprost 10^-8 M, N = 6, % of control
  inhibition at 0.01 µM: 95 ± 4%
[4]; Homo sapiens, Platelet, Cicaprost 10^-9 M, N = 6, % of control
  inhibition at 0.001 µM: 0%
[4]; Homo sapiens, Platelet, Cicaprost 10^-10 M, N = 6, % of control
  inhibition at 0.0001 µM: 4 ± 3%
[5]; Cicaprost 10^-7 M
  inhibition at 0.1 µM: 80 ± 5%
[5]; Cicaprost 10^-8 M
  inhibition at 0.01 µM: 72 ± 3%
[5]; Cicaprost 10^-9 M
  inhibition at 0.001 µM: 0%
[5]; Cicaprost 10^-10 M
  inhibition at 0.0001 µM: 0%
[6]; Cicaprost 10^-7 M
  inhibition at 0.1 µM: 81 ± 1%
[6]; Cicaprost 10^-8 M
  inhibition at 0.01 µM: 81 ± 3%
[6]; Cicaprost 10^-9 M
  inhibition at 0.001 µM: 3 ± 3%
[6]; Cicaprost 10^-10 M
  inhibition at 0.0001 µM: 1 ± 2%
